Test results reported in patent US9884828B2, “Substituted cinnolines as inhibitors of LRRK2 kinase activity” (Imago Pharmaceuticals, Inc., priority 2011, dated 2018).
Like-named read-outs stand apart in the source and are kept apart here.

Biological target: recombinant GST-LRRK2 (wild-type) (Homo sapiens (Human), UniProt Q5S007)
Assay: LRRK2 TR-FRET peptide assay (in vitro kinase activity), wild-type
Type: biochemical
Procedure: Compounds as described herein (compounds of Formula I, e.g., compounds of the above Examples) are tested for their in vitro kinase activities using various LRRK2 (including LRRK2 G2019S mutant) assays. […] Serially diluted compounds (1% DMSO as co-solvent) were pre-incubated with recombinant GST-LRRK2 (wild-type, or G2019S mutant, Invitrogen) for 15 minutes at room temperature in 384-well Corning black plates. […] The inhibition of each well was calculated using the control and background readings for that plate. IC50 values were determined from dose-response curves using eight concentrations from the serial dilution of the test compounds.

[1] = 100 μM ATP, 100 nM biotin-LRRKtide substrate, 10 nM kinase, 60 minutes at room temperature

recombinant GST-LRRK2 (wild-type), sequence (Q5S007 whole entry): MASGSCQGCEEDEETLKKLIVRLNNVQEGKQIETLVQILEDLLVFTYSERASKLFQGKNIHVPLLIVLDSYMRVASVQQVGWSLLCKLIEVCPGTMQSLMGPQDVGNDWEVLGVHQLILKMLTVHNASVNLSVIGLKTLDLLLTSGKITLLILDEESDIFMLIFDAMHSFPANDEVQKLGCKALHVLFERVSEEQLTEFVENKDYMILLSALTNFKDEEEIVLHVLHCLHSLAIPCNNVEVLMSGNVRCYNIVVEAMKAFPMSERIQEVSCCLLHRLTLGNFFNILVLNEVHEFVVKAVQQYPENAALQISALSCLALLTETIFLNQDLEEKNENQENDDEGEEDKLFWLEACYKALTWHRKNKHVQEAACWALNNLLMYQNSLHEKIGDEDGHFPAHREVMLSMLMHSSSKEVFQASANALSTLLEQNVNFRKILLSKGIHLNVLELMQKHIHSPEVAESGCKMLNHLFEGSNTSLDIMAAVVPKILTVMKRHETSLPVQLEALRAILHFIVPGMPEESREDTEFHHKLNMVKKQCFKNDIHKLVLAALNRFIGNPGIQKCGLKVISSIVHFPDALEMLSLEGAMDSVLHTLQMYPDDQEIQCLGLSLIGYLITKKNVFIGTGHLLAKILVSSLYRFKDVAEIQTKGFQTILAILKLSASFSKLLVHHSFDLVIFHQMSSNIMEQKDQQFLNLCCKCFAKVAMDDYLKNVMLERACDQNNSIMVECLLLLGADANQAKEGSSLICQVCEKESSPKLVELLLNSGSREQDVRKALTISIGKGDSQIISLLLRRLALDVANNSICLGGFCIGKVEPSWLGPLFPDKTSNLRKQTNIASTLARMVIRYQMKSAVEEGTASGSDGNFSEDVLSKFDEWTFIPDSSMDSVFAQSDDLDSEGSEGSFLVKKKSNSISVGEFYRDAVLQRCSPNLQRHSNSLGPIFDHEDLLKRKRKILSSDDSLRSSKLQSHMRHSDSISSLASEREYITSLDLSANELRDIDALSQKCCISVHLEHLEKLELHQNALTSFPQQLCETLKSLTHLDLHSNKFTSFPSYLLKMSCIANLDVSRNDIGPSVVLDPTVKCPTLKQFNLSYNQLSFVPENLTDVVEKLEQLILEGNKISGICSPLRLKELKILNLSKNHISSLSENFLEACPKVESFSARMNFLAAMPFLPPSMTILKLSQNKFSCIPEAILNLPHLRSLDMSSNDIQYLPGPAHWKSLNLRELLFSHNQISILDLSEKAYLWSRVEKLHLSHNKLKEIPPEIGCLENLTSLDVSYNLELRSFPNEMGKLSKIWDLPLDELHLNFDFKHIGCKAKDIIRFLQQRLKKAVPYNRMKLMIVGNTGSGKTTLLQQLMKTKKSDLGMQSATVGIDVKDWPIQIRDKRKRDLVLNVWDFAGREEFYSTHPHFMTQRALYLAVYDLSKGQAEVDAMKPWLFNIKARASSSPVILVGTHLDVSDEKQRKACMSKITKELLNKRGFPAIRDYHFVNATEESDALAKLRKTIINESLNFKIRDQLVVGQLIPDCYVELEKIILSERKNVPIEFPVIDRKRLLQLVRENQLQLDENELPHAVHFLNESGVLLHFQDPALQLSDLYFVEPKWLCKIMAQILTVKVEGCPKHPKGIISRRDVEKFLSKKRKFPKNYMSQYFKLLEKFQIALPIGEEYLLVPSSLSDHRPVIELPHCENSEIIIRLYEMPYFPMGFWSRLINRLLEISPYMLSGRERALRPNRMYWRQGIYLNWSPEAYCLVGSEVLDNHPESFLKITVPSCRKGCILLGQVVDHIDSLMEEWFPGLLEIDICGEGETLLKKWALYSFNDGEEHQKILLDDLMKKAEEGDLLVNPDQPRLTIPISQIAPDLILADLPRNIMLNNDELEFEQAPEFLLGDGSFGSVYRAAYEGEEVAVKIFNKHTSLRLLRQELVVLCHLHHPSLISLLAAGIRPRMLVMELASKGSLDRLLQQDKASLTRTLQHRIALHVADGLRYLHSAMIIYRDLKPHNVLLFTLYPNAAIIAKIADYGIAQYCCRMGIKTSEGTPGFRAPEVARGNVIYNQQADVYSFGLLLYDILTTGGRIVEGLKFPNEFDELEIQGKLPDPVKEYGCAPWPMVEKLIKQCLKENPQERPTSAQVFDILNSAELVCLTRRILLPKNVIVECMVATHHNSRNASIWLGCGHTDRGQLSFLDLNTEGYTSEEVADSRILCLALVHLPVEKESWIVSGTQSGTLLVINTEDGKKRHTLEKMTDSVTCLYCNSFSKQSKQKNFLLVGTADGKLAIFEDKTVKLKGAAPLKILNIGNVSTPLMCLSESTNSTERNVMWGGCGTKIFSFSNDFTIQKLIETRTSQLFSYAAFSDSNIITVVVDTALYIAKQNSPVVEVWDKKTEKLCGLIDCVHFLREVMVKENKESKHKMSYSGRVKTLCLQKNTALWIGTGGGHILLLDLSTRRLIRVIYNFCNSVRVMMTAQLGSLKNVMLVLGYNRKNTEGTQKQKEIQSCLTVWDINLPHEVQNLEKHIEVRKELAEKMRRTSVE

Compound	IC50 [1]	IC50
CC(C)Nc1c(C#N)nnc2cc(-c3ccc(S(C)(=O)=O)cc3)ccc12 [Compound 2-18, 4-(isopropylamino)-7-(4-(methylsulfonyl)phenyl)cinnoline-3-carbonitrile]	620 nM	
CS(=O)(=O)c1ccc(-c2ccc3c(NC4CCC4)c(C(N)=O)nnc3c2)cc1 [Compound 2-19, 4-(cyclobutylamino)-7-(4-(methylsulfonyl)phenyl)cinnoline-3-carboxamide]	10 nM	
CN1CCC(Nc2c(C(N)=O)nnc3cc(-c4ccc(S(C)(=O)=O)cc4)ccc23)CC1 [Compound 2-21, 4-(1-methylpiperidin-4-ylamino)-7-(4-(methylsulfonyl)phenyl)cinnoline-3-carboxamide]	180 nM	
CS(=O)(=O)c1ccc(-c2ccc3c(NC4CCOC4)c(C(N)=O)nnc3c2)cc1 (stereo not shown) [Compound 2-23, 7-(4-(methylsulfonyl)phenyl)-4-(tetrahydrofuran-3-ylamino)cinnoline-3-carboxamide]	17 nM	
CS(=O)(=O)c1ccc(-c2ccc3c(NC4CCOCC4)c(C(N)=O)nnc3c2)cc1 [Compound 2-25, 7-(4-(methylsulfonyl)phenyl)-4-(tetrahydro-2H-pyran-4-ylamino)cinnoline-3-carboxamide]	23 nM	
CS(=O)(=O)c1ccc(-c2ccc3c(NC4COC4)c(C(N)=O)nnc3c2)cc1 [Compound 2-27, 7-(4-(methylsulfonyl)phenyl)-4-(oxetan-3-ylamino)cinnoline-3-carboxamide]	180 nM	
CS(=O)(=O)c1ccc(-c2ccc3c(NC4CC4)c(C(N)=O)nnc3c2)cc1 [Compound 2-29, 4-(cyclopropylamino)-7-(4-(methylsulfonyl)phenyl)cinnoline-3-carboxamide]	47 nM	
CC[C@@H](C)Nc1c(C(N)=O)nnc2cc(-c3ccc(S(C)(=O)=O)cc3)ccc12 [Compound 2-37, (R)-(sec-butylamino)-7-(4-(methylsulfonyl)phenyl)cinnoline-3-carboxamide]	< 6 nM	
CC[C@@H](C)Nc1c(C#N)nnc2cc(-c3ccc(S(C)(=O)=O)cc3)ccc12 [Compound 2-38, (R)-4-(sec-butylamino)-7-(4-(methylsulfonyl)phenyl)cinnoline-3-carbonitrile]	550 nM	
C[C@@H](Nc1c(C(N)=O)nnc2cc(-c3ccc(S(C)(=O)=O)cc3)ccc12)C1CC1 [Compound 2-41, (R)-4-(1-cyclopropylethylamino)-7-(4-(methylsulfonyl)phenyl)cinnoline-3-carboxamide]	< 6 nM	
C[C@@H](Nc1c(C#N)nnc2cc(-c3ccc(S(C)(=O)=O)cc3)ccc12)C1CC1 [Compound 2-42, (R)-4-(1-cyclopropylethylamino)-7-(4-(methylsulfonyl)phenyl)cinnoline-3-carbonitrile]	560 nM	
CC(C)Nc1c(C(N)=O)nnc2cc(-c3ccc(N4CCOCC4)cc3)ccc12 [Compound 2-49, 4-(isopropylamino)-7-(4-morpholinophenyl)cinnoline-3-carboxamide]	9 nM	
CC(C)Nc1c(C(N)=O)nnc2cc(-c3cccc(N4CCOCC4)c3)ccc12 [Compound 2-51, 4-(isopropylamino)-7-(3-morpholinophenyl)cinnoline-3-carboxamide]	17 nM	
CS(=O)(=O)c1ccc(-c2ccc3c(NC45CC6CC(CC(C6)C4)C5)c(C(N)=O)nnc3c2)cc1 [Compound 2-88, 4-(1-adamantylamino)-7-(4-(methylsulfonyl)phenyl)cinnoline-3-carboxamide]	420 nM	
CS(=O)(=O)c1ccc(-c2ccc3c(NCC4CCOCC4)c(C(N)=O)nnc3c2)cc1 [Compound 2-89, 7-(4-(methylsulfonyl)phenyl)-4-((tetrahydro-2H-pyran-4-yl)methylamino)cinnoline-3-carboxamide]	110 nM	
C[C@@H](Nc1c(C(N)=O)nnc2cc(-c3ccc(S(C)(=O)=O)cc3)ccc12)C1CCOCC1 [Compound 2-90, (R)-7-(4-(methylsulfonyl)phenyl)-4-(1-(tetrahydro-2H-pyran-4-yl)ethylamino)cinnoline-3-carboxamide]	63 nM	
CS(=O)(=O)c1ccc(-c2ccc3c(NCC4CC4)c(C(N)=O)nnc3c2)cc1 [Compound 2-92]	17 nM	
C[C@@H](Nc1c(C(N)=O)nnc2cc(-c3ccncc3)ccc12)C1CC1 [Compound 2-100, (R)-4-(1-cyclopropylethylamino)-7-(pyridin-4-yl)cinnoline-3-carboxamide]		< 6 nM
C[C@@H](Nc1c(C(N)=O)nnc2cc(-c3cccc(C(=O)N(C)C)c3)ccc12)C1CC1 [Compound 2-102, (R)-4-(1-cyclopropylethylamino)-7-(3-(dimethylcarbamoyl)phenyl)cinnoline-3-carboxamide]	< 6 nM	
COCc1ccccc1-c1ccc2c(N[C@H](C)C3CC3)c(C(N)=O)nnc2c1 [Compound 2-104, (R)-4-(1-cyclopropylethylamino)-7-(2-(methoxymethyl)phenyl)cinnoline-3-carboxamide]	330 nM	
C[C@@H](Nc1c(C(N)=O)nnc2cc(-c3cncc4ccccc34)ccc12)C1CC1 [Compound 2-105, (R)-4-(1-cyclopropylethylamino)-7-(isoquinolin-4-yl)cinnoline-3-carboxamide]	380 nM	

Now from value to compound, other results behind:

IC50 [1]	Compound	IC50
140 nM	CS(=O)(=O)c1ccc(-c2ccc3c(N)c(C(N)=O)nnc3c2)cc1 [Compound 1-5, 4-amino-7-(4-(methylsulfonyl)phenyl)cinnoline-3-carboxamide]	
120 nM	NC(=O)c1nnc2cc(-c3cccc(N4CCOCC4)c3)ccc2c1N [Compound 1-6, 4-amino-7-(3-morpholinophenyl)cinnoline-3-carboxamide]	
130 nM	CN(C)c1ccc(-c2ccc3c(N)c(C(N)=O)nnc3c2)cc1 [Compound 1-7, 4-amino-7-(4-(dimethylamino)phenyl)cinnoline-3-carboxamide]	
250 nM	CN(C)c1cccc(-c2ccc3c(N)c(C(N)=O)nnc3c2)c1 [Compound 1-8, 4-amino-7-(3-(dimethylamino)phenyl)cinnoline-3-carboxamide]	
29700 nM	NC(=O)c1nnc2cc(-c3ccc(N4CCOCC4)cc3)ccc2c1N [Compound 1-9, 4-amino-7-(4-morpholinophenyl)cinnoline-3-carboxamide]	
4000 nM	CC(C)(C)c1ccc2nnc(C(N)=O)c(N)c2c1 [Compound 1-186, 4-amino-6-tert-butylcinnoline-3-carboxamide]	
15 nM	CC(C)Nc1c(C(N)=O)nnc2cc(-c3ccc(S(C)(=O)=O)cc3)ccc12 [Compound 2-17, 4-(isopropylamino)-7-(4-(methylsulfonyl)phenyl)cinnoline-3-carboxamide]	
210 nM	CC(C)Nc1c(C(N)=O)nnc2cc(-c3cncnc3)ccc12 [Compound 2-33, 4-(isopropylamino)-7-(pyrimidin-5-yl)cinnoline-3-carboxamide]	
9 nM	CC(C)Nc1c(C(N)=O)nnc2cc(-c3cnn(C)c3)ccc12 [Compound 2-35, 4-(isopropylamino)-7-(1-methyl-1H-pyrazol-4-yl)cinnoline-3-carboxamide]	
84 nM	CC(C)Nc1c(C(N)=O)nnc2cc(-c3cccc(F)c3)ccc12 [Compound 2-45, 7-(3-fluorophenyl)-4-(isopropylamino)cinnoline-3-carboxamide]	
210 nM	CC(C)Nc1c(C(N)=O)nnc2cc(-c3ccccc3F)ccc12 [Compound 2-47, 7-(2-fluorophenyl)-4-(isopropylamino)cinnoline-3-carboxamide]	
9 nM	CC(C)Nc1c(C(N)=O)nnc2cc(-c3cn[nH]c3)ccc12 [Compound 2-53, 4-(isopropylamino)-7-(1H-pyrazol-4-yl)cinnoline-3-carboxamide]	
33 nM	CC(C)Nc1c(C(N)=O)nnc2cc(-c3cccnc3)ccc12 [Compound 2-57, 4-(isopropylamino)-7-(pyridin-3-yl)cinnoline-3-carboxamide]	
45 nM	CC(C)(C)Nc1c(C(N)=O)nnc2cc(-c3ccc(S(C)(=O)=O)cc3)ccc12 [Compound 2-91, 4-(tert-butylamino)-7-(4-(methylsulfonyl)phenyl)cinnoline-3-carboxamide]	
46 nM	CCNc1c(C(N)=O)nnc2cc(-c3ccc(S(C)(=O)=O)cc3)ccc12 [Compound 2-93, 4-(ethylamino)-7-(4-(methylsulfonyl)phenyl)cinnoline-3-carboxamide]	
120 nM	CNc1c(C(N)=O)nnc2cc(-c3ccc(S(C)(=O)=O)cc3)ccc12 [Compound 2-94, 4-(methylamino)-7-(4-(methylsulfonyl)phenyl)cinnoline-3-carboxamide]	
120 nM	C=Cc1ccc2c(NC(C)C)c(C(N)=O)nnc2c1 [Compound 2-95, 4-(isopropylamino)-7-vinylcinnoline-3-carboxamide]	
350 nM	COc1ccccc1-c1ccc2c(NC(C)C)c(C(N)=O)nnc2c1 [Compound 2-96, 4-(isopropylamino)-7-(2-methoxyphenyl)cinnoline-3-carboxamide]	
46 nM	COc1cccc(-c2ccc3c(NC(C)C)c(C(N)=O)nnc3c2)c1 [Compound 2-97, 4-(isopropylamino)-7-(3-methoxyphenyl)cinnoline-3-carboxamide]	
590 nM	COc1ccc(F)cc1-c1ccc2c(NC(C)C)c(C(N)=O)nnc2c1 [Compound 2-98, 7-(5-fluoro-2-methoxyphenyl)-4-(isopropylamino)cinnoline-3-carboxamide]	
76 nM	C=C(C)c1ccc2c(NC(C)C)c(C(N)=O)nnc2c1 [Compound 2-99, 4-(isopropylamino)-7-(prop-1-en-2-yl)cinnoline-3-carboxamide]	
1 nM	C[C@@H](Nc1c(C(N)=O)nnc2cc(-c3cnn(C)c3)ccc12)C1CC1 [Compound 2-101, (R)-4-(1-cyclopropylethylamino)-7-(1-methyl-1H-pyrazol-4-yl)cinnoline-3-carboxamide]	
